Molecular target: T1, human C5a receptor (Homo sapiens, UniProt P21730)
T1 construct: endogenous in cells; host or cells: U937 cells differentiated with 1 mM dibutyryl cAMP
T1 sequence (P21730 1-350): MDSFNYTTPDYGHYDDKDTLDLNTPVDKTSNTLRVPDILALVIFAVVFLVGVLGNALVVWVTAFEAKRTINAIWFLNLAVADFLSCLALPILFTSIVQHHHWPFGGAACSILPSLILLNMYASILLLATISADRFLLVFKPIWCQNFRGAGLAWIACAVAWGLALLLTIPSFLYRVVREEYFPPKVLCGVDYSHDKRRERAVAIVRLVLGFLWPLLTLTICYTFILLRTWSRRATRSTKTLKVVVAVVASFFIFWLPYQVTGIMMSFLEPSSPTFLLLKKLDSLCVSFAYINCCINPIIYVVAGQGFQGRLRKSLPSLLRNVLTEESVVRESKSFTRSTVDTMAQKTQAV
Assay: C5a receptor mediated calcium mobilization assay (Example 20)
Assay type: cell-based
Details: differentiated U937 cells, read-out: Ca2+ (Ki in the standard assay of C5a receptor mediated calcium mobilization)
Method: Calcium Mobilization Assays
U937 cells are grown in differentiation media (1 mM dibutyryl cAMP in RPMI 1640 medium containing 10% fetal bovine serum) for 48 hrs at 37° C. then reseeded onto 96-well plates suitable for use in a FLIPR™ Plate Reader (Molecular Devices Corp., Sunnyvale Calif.). Cells are grown an additional 24 hours (to 70-90% confluence) before the assay. The cells are then washed once with Krebs Ringer solution. FLUO-3 calcium sensitive dye (Molecular Probes, Inc. Eugene, Oreg.) is added to 10 μg/mL and incubated with the cells at room temperature for 1 to 2 hours. The 96 well plates are then washed to remove excess dye. Fluorescence responses, measured by excitation at 480 nm and emission at 530 nm, are monitored upon the addition of human C5a to the cells to a final concentration of 0.01-30.0 nM, using the FLIPR™ device (Molecular Devices).
C. Assays for the Identification of Receptor Modulatory Agents: Antagonists and Agonists
The calcium mobilization assay described above may be readily adapted for identifying test compounds that have agonist or antagonist activity at the human C5a receptor.
For example, in order to identify antagonist compounds, differentiated U937 cells are washed and incubated with Fluo-3 dye as described above. One hour prior to measuring the fluorescence signal, a subset of the cells is incubated with 1 μM of at least one compound to be tested. The fluorescence response upon the subsequent addition of 0.3 nM (final concentration) human recombinant C5a is monitored using the FLIPR™ plate reader. Antagonist compounds elicit at least a 2-fold decrease in the fluorescence response relative to that measured in the presence of human C5a alone. Preferred antagonist compounds elicit at least a 5-fold, preferably at least a 10-fold, and more preferably at least a 20-fold decrease in the fluorescence response relative to that measured in the presence of human C5a alone.

SMILES	Ki
C[C@@H](C(=O)N(Cc1ccccc1F)C1Cc2ccccc2C1)N1CCc2ccccc2[C@@H]1c1cccc2c1OCC2 [Compound 75, (2S)-2-[(1R)-1-(2,3-dihydro-1-benzofuran-7-yl)-3,4-dihydroisoquinolin-2(1H)-yl]-N-(indan-2-yl)-N-(2-fluorobenzyl)propanamide]	< 1000 nM
C[C@@H](C(=O)N(Cc1ncccc1F)C1Cc2ccccc2C1)N1CCc2ccccc2[C@@H]1c1cccc2ccccc12 [Compound 126, (2S)-N-(indan-2-yl)-N-[(3-fluoropyridin-2-yl)methyl]-2-[(1R)-1-(1-naphthyl)-3,4-dihydroisoquinolin-2(1H)-yl]propanamide]	< 1000 nM
Cc1ccccc1[C@@H]1c2ccccc2CCN1[C@@H](C)C(=O)N(Cc1ccccc1F)C1Cc2ccccc2C1 (stereo in doubt) [Compound 34, (2S)-N-(indan-2-yl)-N-(2-fluorobenzyl)-2-[(1R)-1-(2-methylphenyl)-3,4-dihydroisoquinolin-2(1H)-yl]propanamide]	< 1000 nM
COc1ccc2c(c1)CC(N(Cc1ccccc1F)C(=O)CN1CCc3ccccc3C1c1ccccc1C(F)(F)F)C2 (centres unmarked) [Compound 94, N-(2-fluorobenzyl)-N-(5-methoxy-indan-2-yl)-2-[1-[2-(trifluoromethyl)phenyl]-3,4-dihydroisoquinolin-2(1H)-yl]acetamide]	< 1000 nM
C[C@@H](C(=O)N(Cc1ccccc1F)C1Cc2ccccc2C1)N1CCc2ccccc2[C@@H]1c1c(F)cccc1Cl [Compound 103, (2S)-2-[(1R)-1-(2-chloro-6-fluorophenyl)-3,4-dihydroisoquinolin-2(1H)-yl]-N-(indan-2-yl)-N-(2-fluorobenzyl)propanamide]	< 1000 nM
Cc1ccccc1[C@@H]1c2ccccc2CCN1[C@@H](C)C(=O)N(Cc1ccccc1F)C1Cc2ccccc2C1 (relative stereo) [Compound 19, N-(indan-2-yl)-N-(2-fluorobenzyl)-2-[1-(2-methylphenyl)-3,4-dihydroisoquinolin-2(1H)-yl]propanamide]	< 1000 nM
Cc1ccccc1[C@@H]1c2c(C)cccc2CCN1CC(=O)N(Cc1ccccc1F)C1Cc2ccccc2C1 (stereo in doubt) [Compound 78, N-(indan-2-yl)-N-(2-fluorobenzyl)-2-[8-methyl-1-(2-methylphenyl)-3,4-dihydroisoquinolin-2(1H)-yl]acetamide]	< 1000 nM
C[C@@H](C(=O)N(CCc1ccccc1)CCc1ccccc1F)N1CCc2ccccc2[C@@H]1c1ccccc1Cl [Compound 108, (2S)-2-[(1R)-1-(2-chlorophenyl)-3,4-dihydroisoquinolin-2(1H)-yl]-N-[2-(2-fluorophenyl)ethyl]-N-(2-phenylethyl)propanamide]	< 1000 nM
Cc1cc(C)c(C2c3ccccc3CCN2CC(=O)N(Cc2ccccc2F)C2Cc3ccccc3C2)c(C)c1 (centres unmarked) [Compound 80, N-(indan-2-yl)-N-(2-fluorobenzyl)-2-(1-mesityl-3,4-dihydroisoquinolin-2(1H)-yl)acetamide]	< 1000 nM
C[C@H]1CN(CC(=O)N(Cc2ccccc2F)C2Cc3ccccc3C2)[C@@H](c2ccccc2F)c2ccccc21 [Compound 54, N(indan-2-yl)-N-(2-fluorobenzyl)-2-[(1R,4R)-1-(2-fluorophenyl)-4-methyl-3,4-dihydroisoquinolin-2(1H)-yl]acetamide]	< 1000 nM

Second part, the molecule after the results:

Ki	SMILES
< 1000 nM	COC(=O)c1ccc(C2c3ccccc3CCN2CC(=O)N(Cc2ccccc2F)C2Cc3ccccc3C2)cc1 (centres unmarked) [Compound 76, methyl 4-(2-{2-[indan-2-yl(2-fluorobenzyl)amino]-2-oxoethyl}-1,2,3,4-tetrahydroisoquinolin-1-yl)benzoate]
< 1000 nM	Cc1cccc(C2c3ccccc3CCN2CC(=O)N(Cc2ccccc2F)C2Cc3ccccc3C2)c1Cl (centres unmarked) [Compound 47, 2-[1-(2-chloro-3-methylphenyl)-3,4-dihydroisoquinolin-2(1H)-yl]-N-(indan-2-yl)-N-(2-fluorobenzyl)acetamide]
< 1000 nM	O=C(CN1CCc2ccccc2[C@H]1c1ccccc1Br)N(Cc1ccccc1F)C1Cc2ccccc2C1 (stereo in doubt) [Compound 22, 2-[1-(2-bromophenyl)-3,4-dihydroisoquinolin-2(1H)-yl]-N-(indan-2-yl)-N-(2-fluorobenzyl)acetamide]
< 1000 nM	Cc1c(F)cccc1C1c2ccccc2CCN1CC(=O)N(Cc1ccccc1F)C1Cc2ccccc2C1 (centres unmarked) [Compound 48, N-(indan-2-yl)-N-(2-fluorobenzyl)-2-[1-(3-fluoro-2-methylphenyl)-3,4-dihydroisoquinolin-2(1H)-yl]acetamide]
< 1000 nM	Cc1ccc(Cl)cc1[C@@H]1c2ccccc2CCN1CC(=O)N(Cc1ccccc1F)C1Cc2ccccc2C1 (stereo in doubt) [Compound 51, 2-[1-(5-chloro-2-methylphenyl)-3,4-dihydroisoquinolin-2(1H)-yl]-N-(indan-2-yl)-N-(2-fluorobenzyl)acetamide]
< 1000 nM	O=C(CN1CCc2ccccc2[C@@H]1c1ccccc1F)N(Cc1ccccc1F)C1Cc2ccccc2C1 [Compound 58, N-(indan-2-yl)-N-(2-fluorobenzyl)-2-[(1R)-1-(2-fluorophenyl)-3,4-dihydroisoquinolin-2(1H)-yl]acetamide]
< 1000 nM	O=C(CN1CCc2ccccc2C1c1cccc(C(F)(F)F)c1)N(Cc1ccccc1F)C1Cc2ccccc2C1 (centres unmarked) [Compound 50, N-(indan-2-yl)-N-(2-fluorobenzyl)-2-[1-[3-(trifluoromethyl)phenyl]-3,4-dihydroisoquinolin-2(1H)-yl]acetamide]
< 1000 nM	Cc1ccc2ccccc2c1C1c2ccccc2CCN1CC(=O)N(Cc1ccccc1F)C1Cc2ccccc2C1 (centres unmarked) [Compound 83, N-(indan-2-yl)-N-(2-fluorobenzyl)-2-[1-(2-methyl-1-naphthyl)-3,4-dihydroisoquinolin-2(1H)-yl]acetamide]
< 1000 nM	Cc1ccccc1C1c2ccccc2CCN1CC(=O)N(Cc1ccc(C(=O)O)cc1)C1Cc2ccccc2C1 (centres unmarked) [Compound 88, 4-[(indan-2-yl{[1-(2-methylphenyl)-3,4-dihydroisoquinolin-2(1H)-yl]acetyl}amino)methyl] benzoic acid]
< 1000 nM	COc1cccc2c1C(c1ccccc1C)N(CC(=O)N(Cc1ccccc1F)C1Cc3ccccc3C1)CC2 (centres unmarked) [Compound 14, N-(indan-2-yl)-N-(2-fluorobenzyl)-2-[8-methoxy-1-(2-methylphenyl)-3,4-dihydroisoquinolin-2(1H)-yl]acetamide]
< 1000 nM	Cc1ccccc1C1c2c(Cl)cccc2CCN1CC(=O)N(Cc1ccccc1F)C1Cc2ccccc2C1 (centres unmarked) [Compound 116, 2-[8-chloro-1-(2-methylphenyl)-3,4-dihydroisoquinolin-2(1H)-yl]-N-(indan-2-yl)-N(2-fluorobenzyl)acetamide]

Same assay, conditions: differentiated U937 cells, unit inferred, read-out: Ca2+ (numeric value, C5a receptor mediated calcium mobilization)

Ki	SMILES
547 nM	Cc1ccccc1C1C(C)CCCN1CC(=O)N(Cc1ccccc1F)C1Cc2ccccc2C1 (centres unmarked) [Compound 128, N-(2-Fluoro-benzyl)-N-indan-2-yl-2-(3-methyl-2-o-tolyl-piperidin-1-yl)-acetamide]
39.9 nM	Cc1ccccc1C1c2ccsc2CCN1CC(=O)N(Cc1ccccc1F)C1Cc2ccccc2C1 (centres unmarked) [Compound 136, N-(2-Fluoro-benzyl)-N-indan-2-yl-2-(4-o-tolyl-6,7-dihydro-4H-thieno[3,2-c]pyridin-5-yl)-acetamide]

Reference: patent publication US6777422B2, “Substituted tetrahydroisoquinolines as C5a receptor modulators” (Neurogen Corp., priority 2002, dated 2004)
